Patent US20230416202A1, “Small Molecule Compounds and Compositions” (Telo Therapeutics, Inc., priority 2020, published 2023)
Where two headings read alike, the source gives them in different places.

Columns and labels:
Type in all cases: cell-based, human
HEK293 cells = assay: HEK293 cytostatic; conditions: for IC50: read-out: wt Tert IC50 uM HEK293 cytostatic
Mutant TERT = assay: HepG2 hTERT mRNA assay (qPCR); conditions: Homo sapiens; HepG2 cells (mutated TERT), 48 hours, TERT mRNA via qPCR
Method: (§1) HepG2 cells (hepatocyte carcinoma (HCC) cells; with mutated TERT) or HEK293T cells (with wild type (wt) TERT) were seeded at 4,000 cells/well in 96-well plates. The following day, test compounds were added to cells for at concentrations of 25 uM, 12.5 uM, 6.25 uM, 3.125 uM, 1.563 uM, 0.781 uM, 0.391 uM, 0.195 uM, 0.098 uM or vehicle control (0.1% DMSO). Each condition was tested in three replicate wells. 48 hours post drug addition, the cells were harvested for RNA using the 96-Magmax RNA Isolation kit (Cat. No. AM1830). RNA was converted to cDNA using the Superscript III First strand cDNA synthesis kit (Cat. No. 18080051). RNA and cDNA concentration and quality were determined using the NanoQuant nucleic acid quantification method. 500 ng cDNA from each sample was used to detect TERT mRNA via qPCR. GUSB was also measured as an internal control and fold change to vehicle control was determined using the delta CT method.

HepG2 cells = assay: HepG2 cytostatic
wt TERT = assay: HEK293T hTERT mRNA assay (qPCR)
Method: as §1

[1] = Homo sapiens, HEK293, HEK293 cells
[2] = Homo sapiens, HEK-293T, wild type TERT, read-out: wt TERT IC50
[3] = Homo sapiens, HEK293 cells (wt TERT), 48 hours, class symbols, read-out: wt TERT IC50 uM HEK293

Row | SMILES | IC50 (HEK293 cells; [1]) [µM] | IC50 (Mutant TERT) [µM] | IC50 (HepG2 cells; Homo sapiens) [µM] | IC50 (wt TERT; [2]) [µM] | IC50 (wt TERT; [3]) [µM] | wt Tert IC50 uM HEK293 cytostatic (HEK293 cells; HEK293 cells) | Cytostatic IC50 uM HepG2 cytostatic (HepG2 cells) | IC50 (HEK293 cells; HEK293 cells) [µM] | IC50 (HepG2 cells) [µM] | IC50 (wt TERT; HEK293 cells (wt TERT), 48 hours, class symbols, read-out: wt TERT IC50 uM HEK293) [µM] | IC50 (wt TERT; wild type TERT, read-out: wt TERT IC50) [µM]
1 | COc1ccc(CN2C[C@H](CC(=O)O)C[C@@H](c3ccc(C(F)(F)F)cc3)C2)cc1 [Compound 109] | 5 to 25 | > 25 | 0.5 to 5 | > 25 | > 25 | – | – | – | – | – | –
2 | N#Cc1ccc([C@@H]2C[C@@H](CC(=O)O)CN(Cc3ccc(C(F)(F)F)cc3)C2)cc1 (racemic) [Compound 107, 2-((anti)-5-(4-cyanophenyl)-1-(4-(trifluoromethyl)benzyl)piperidin-3-yl)acetic acid] | > 25 | 5 to 25 | 5 to 25 | > 25 | > 25 | – | – | – | – | – | –
3 | COc1ccc([C@H]2C[C@H](CC(=O)O)CN(Cc3ccc(C(F)(F)F)cc3)C2)cc1 (racemic) [Compound 105, 2-((anti)-5-(4-methoxyphenyl)-1-(4-(trifluoromethyl)benzyl)piperidin-3-yl)acetic acid] | 5 to 25 | 0.5 to 5 | 5 to 25 | > 25 | > 25 | – | – | – | – | – | –
4 | COc1cc(CN2C[C@H](CC(=O)O)C[C@@H](c3ccc(C(F)(F)F)cc3)C2)cc(C(F)(F)F)c1 [Compound 108, 2-((3S,5S)-1-(3-methoxy-5-(trifluoromethyl)benzyl)-5-(4-(trifluoromethyl)phenyl)piperidin-3-yl)acetic acid] | – | > 25 | > 25 | > 25 | > 25 | – | – | – | – | – | –
5 | O=C(O)CC1CC(c2ccc(C(F)(F)F)cc2)CN(Cc2ccc(C(F)(F)F)cc2)C1 (racemic) [Compound 100, rac-2-((anti)-1-(4-(trifluoromethyl)benzyl)-5-(4-(trifluoromethyl)phenyl)piperidin-3-yl)acetic acid] | – | 0.5 to 5 | – | > 25 | > 25 | “++”-“+” | “++”-“+” | – | – | – | –
6 | O=C(O)C[C@H]1C[C@H](c2ccc(C(F)(F)F)cc2)CN(Cc2ccc(C(F)(F)F)cc2)C1 [Compound 102, 2-((3R,5R)-1-(4-(trifluoromethyl)benzyl)-5-(4-(trifluoromethyl)phenyl)piperidin-3-yl)acetic acid] | 5 to 25 | 5 to 25 | 5 to 25 | > 25 | > 25 | – | – | – | – | – | –
7 | CC(C(=O)O)[C@@H]1C[C@@H](c2ccc(C(F)(F)F)cc2)CN(Cc2ccc(C(F)(F)F)cc2)C1 (single isomer, unassigned) [Compound 113] | – | 0.5 to 5 | 0.5 to 5 | > 25 | > 25 | – | – | 5 to 25 | – | – | –
8 | O=C(O)C[C@H]1C[C@H](c2cccc(C(F)(F)F)c2)CN(Cc2ccc(C(F)(F)F)cc2)C1 (racemic) [Compound 104, rac-2-((anti)-1-(4-(trifluoromethyl)benzyl)-5-(3-(trifluoromethyl)phenyl)piperidin-3-yl)acetic acid] | 5 to 25 | – | 5 to 25 | > 25 | > 25 | – | – | – | – | – | –
9 | O=C(O)C[C@@H]1C[C@@H](c2ccc(C(F)(F)F)cc2)CN(Cc2cccc(C(F)(F)F)c2)C1 [Compound 111, 2-((3S,5S)-1-(3-(trifluoromethyl)benzyl)-5-(4-(trifluoromethyl)phenyl)piperidin-3-yl)acetic acid] | – | < 0.5 | – | > 25 | > 25 | – | – | – | – | – | –
10 | N#Cc1ccc(CN2C[C@H](CC(=O)O)C[C@@H](c3ccc(C(F)(F)F)cc3)C2)cc1 [Compound 115, 2-((3S,5S)-1-(4-cyanobenzyl)-5-(4-(trifluoromethyl)phenyl)piperidin-3-yl)acetic acid] | 5 to 25 | 0.5 to 5 | 0.5 to 5 | > 25 | > 25 | – | – | – | – | – | –
11 | CC(C(=O)O)[C@@H]1C[C@@H](c2ccc(C(F)(F)F)cc2)CN(Cc2ccc(C(F)(F)F)cc2)C1 (single isomer, unassigned) [Compound 114] | – | – | – | – | – | – | – | 0.5 to 5 | 0.5 to 5 | > 25 | > 25
12 | COc1cccc(CN2C[C@H](CC(=O)O)C[C@@H](c3ccc(C(F)(F)F)cc3)C2)c1 [Compound 110, 2-((3S,5S)-1-(3-methoxybenzyl)-5-(4-(trifluoromethyl)phenyl)piperidin-3-yl)acetic acid] | – | > 25 | – | > 25 | > 25 | – | – | – | – | – | –
13 | C#Cc1ccc(CN2C[C@H](CC(=O)O)C[C@@H](c3ccc(C(F)(F)F)cc3)C2)cc1 [Compound 112, 2-((3S,5S)-1-(4-ethynylbenzyl)-5-(4-(trifluoromethyl)phenyl)piperidin-3-yl)acetic acid] | > 25 | < 0.5 | 0.5 to 5 | > 25 | > 25 | – | – | – | – | – | –
14 | COc1cccc([C@H]2C[C@H](CC(=O)O)CN(Cc3ccc(C(F)(F)F)cc3)C2)c1 (racemic) [Compound 103, 2-((anti)-5-(3-methoxyphenyl)-1-(4-(trifluoromethyl)benzyl)piperidin-3-yl)acetic acid] | 5 to 25 | > 25 | 5 to 25 | > 25 | > 25 | – | – | – | – | – | –
15 | COc1cc([C@H]2C[C@H](CC(=O)O)CN(Cc3ccc(C(F)(F)F)cc3)C2)cc(C(F)(F)F)c1 (racemic) [Compound 106, rac-2-((anti)-5-(3-methoxy-5-(trifluoromethyl)phenyl)-1-(4-(trifluoromethyl)benzyl)piperidin-3-yl)acetic acid] | 5 to 25 | 0.5 to 5 | 0.5 to 5 | > 25 | > 25 | – | – | – | – | – | –
16 | N#Cc1cccc([C@H]2C[C@H](CC(=O)O)CN(Cc3ccc(C(F)(F)F)cc3)C2)c1 (racemic) [Compound 127, anti-2-(5-(3-cyanophenyl)1-(4-(trifluoromethyl)benzyl)piperidin-3-yl)acetic acid] | – | 0.5 to 5 | – | – | – | – | – | – | – | – | –
17 | [N-]=[N+]=NCc1ccc(CN2C[C@@H](CC(=O)O)C[C@H](c3ccc(N=[N+]=[N-])cc3)C2)cc1 (racemic) [Compound 134, anti-2-(1-(4-(azidomethyl)benzyl)-5-(4-azidophenyl)piperidin-3-yl)acetic acid] | – | 0.5 to 5 | – | – | – | – | – | – | – | – | –
18 | C#Cc1ccc([C@H]2C[C@H](CC(=O)O)CN(Cc3ccc(C4(C(F)(F)F)N=N4)cc3)C2)cc1 (racemic) [Compound 136, Anti-2-(5-(4-ethynylphenyl)-1-(4-(3-(trifluoromethyl)-3H-diazirin-3-yl)benzyl)piperidin-3-yl)acetic acid] | – | 0.5 to 5 | – | – | – | – | – | – | – | – | –
